Read-outs that look alike come from different tables or passages of the source.
Columns and labels:
[1] = system: Burkitt lymphoma CA46 cells; test: Inhibition of CA46 cell growth; type: cell-based; conditions: Homo sapiens
tubulin [2] = system: T1, tubulin; test: Inhibition of [3H]colchicine binding to tubulin; conditions: tubulin 1.0 μM, [3H]colchicine 5.0 μM
T1 construct: other: tubulin 10 μM; extent of assembly measured; asterisk: rate but not ex; tubulin 1.0 μM; [3H]colchicine; [3H]colchicin

tubulin [3] = conditions: background statement, literature; cited from earlier work
tubulin [4] = system: T1, tubulin; test: Inhibition of tubulin polymerization; type: biochemical; conditions: tubulin 10 μM; extent of assembly measured; asterisk: rate but not extent inhibited up to 40 μM
[5] = system: MCF-7 human breast carcinoma cell line; test: Inhibition of MCF-7 cell growth; type: cell-based
[6] = CA46, read-out: Inhibition of CA46 cell growth IC50

For `COc1ccc(/C=C\c2cc(OC)c(OC)c(OC)c2)cc1O` [(A), Combretastatin A4, reference compound], the IC50 ([1]; Burkitt lymphoma CA46 cells, read-out: Inhibition of CA46 cell growth IC50) was 1 nM and the “Inhibition of colchicine binding (% inhibition), 5 μM inhibitor” value (“Inhibition … (% inhibition), 5 μM inhibitor” for short) (tubulin [2]) was 91%.
For `COc1ccc2[nH]c(-c3ccc4c(c3)OCO4)c(-c3cc(OC)c(OC)c(OC)c3)c2c1` [(C)], the tubulin binding activity (tubulin [3]) is listed as “moderate”.
In the case of `COc1ccc(-c2oc3cc(O)c(OC)cc3c2-c2cc(OC)c(OC)c(OC)c2)cc1O` [(D)], the tubulin binding activity (tubulin [3]) is given as “did not exhibit tubulin binding activity”.
In the case of `COc1ccc2c(C(O)c3ccc(OC)c(O)c3)c(-c3cc(OC)c(OC)c(OC)c3)sc2c1` (centres unmarked) [BLF-34-3], the IC50 [1, 6] is reported as over 1000 nM, the “Inhibition … (% inhibition), 5 μM inhibitor” value (tubulin [2]) is reported as 5% and the “Inhibition of colchicine binding (% inhibition), 50 μM inhibitor” value (from here on “Inhibition … (% inhibition), 50 μM inhibitor”) (tubulin [2]) is reported as 73%. The IC50 (tubulin [4]) was 6100 ± 800 nM.
In the case of `COc1ccc(-c2sc3cc4c(cc3c2C(=O)c2cc(OC)c(OC)c(OC)c2)OCO4)cc1O` [BLF-53-3, 2-(3′-Hydroxy-4′-methoxyphenyl)-5,6-methylendioxy-3-(3″,4″,5″-trimethoxybenzoyl)benzo[b]thiophene], the IC50 [1, 6] is reported as over 1000 nM, the “Inhibition … (% inhibition), 5 μM inhibitor” value (tubulin [2]) is reported as 2% and the “Inhibition … (% inhibition), 50 μM inhibitor” value (tubulin [2]) is reported as 31%. It also gave an IC50 (tubulin [4]) of over 40000 nM and a melting point of 156 to 157 °C.
Molecule `COc1ccc2c(-c3cc(OC)c(OC)c(OC)c3)c(-c3ccc(OC)c(O)c3)[nH]c2c1` [BLF-61-3, 6-Methoxy-2-(3-hydroxy-4-methoxyphenyl)-3-(3,4,5-trimethoxyphenyl)indole] has a melting point of 98 to 99 °C.
`COc1ccc2c(C(=O)c3cc(OC)c(OC)c(OC)c3)c(-c3ccc(OC)c(O)c3)oc2c1` [BLF-62-3, 6-Methoxy-2-(3-hydroxy-4-methoxyphenyl)-3-(3,4,5-trimethoxybenzoyl)benzo bifuran] showed a melting point of 68 to 69 °C.
`COc1ccc(-c2oc3cc(OC)ccc3c2C(O)c2cc(OC)c(OC)c(OC)c2)cc1` (centres unmarked) [BLF-68-3] gave a melting point of 53 to 54 °C.
For `COc1ccc2c(C(O)c3cc(OC)c(OC)c(OC)c3)c(-c3ccc(OC)c(O)c3)oc2c1` (stereo not drawn) [BLF-69-3, 6-Methoxy-2-(3-hydroxy-4-methoxyphenyl)-3-[α-hydroxy-α-(3,4,5-trimethoxyphenyl)methyl]benzo[b]furan], the melting point was 68 to 69 °C.
`COc1ccc(-c2oc3cc(OC)ccc3c2Cc2cc(OC)c(OC)c(OC)c2)cc1` [BLF-70-3, 6-Methoxy-2-(4-methoxyphenyl)-3-(3,4,5-trimethoxybenzyl)benzo[b]furan] gave a melting point of 121 to 122 °C.
`COc1ccc2c(C(=O)c3cc(OC)c(OC)c(OC)c3)c(-c3ccc(OC)c(O)c3)sc2c1` [BLF-86-1, 2-(3′-Hydroxy-4′-methoxyphenyl)6-methoxy-3-(3″,4″,5″-trimethoxybenzoyl)benzo[b]thiophene] gave a melting point of 123 to 125 °C.
In the case of `COc1ccc(-c2sccc2C(=O)c2cc(OC)c(OC)c(OC)c2)cc1O` [BLF-89-3], the IC50 ([5]; MCF7, MCF-7 human breast carcinoma cell line, read-out: Inhibition of cell growth IC50 (MCF-7)) is reported as 300 nM, the “Inhibition … (% inhibition), 5 μM inhibitor” value (tubulin [2]) is reported as 67% and the IC50 (tubulin [4]) is reported as 1000 ± 100 nM. The melting point was 151 to 152 °C.
`COc1ccc(C2=C(C(=O)c3cc(OC)c(OC)c(OC)c3)C(=O)c3cc(OC)c(OC)c(OC)c32)cc1O` [DK-12a-1, 3-(3′-Hydroxy-4′-methoxyphenyl)-4,5,6-trimethoxy-2-(3′,4″,5″-trimethoxybenzoyl)indenone] gave an IC50 (tubulin [4]) of 10000 to 40000 nM.
In the case of `COc1ccc(C2=C(c3cc(OC)c(OC)c(OC)c3)CCS2)cc1OC(C)=O` [GPF-60-1, 2-(3′-acetoxy-4′-methoxyphenyl)-4,5-dihydro-3-(3″,4″,5″-trimethoxyphenyl)thiophene], the IC50 ([5]; Homo sapiens, MCF7, read-out: Inhibition of cell growth IC50 (MCF-7)) is reported as 390 nM, the “Inhibition … (% inhibition), 5 μM inhibitor” value (tubulin [2]) is reported as 64% and the “Inhibition … (% inhibition), 50 μM inhibitor” value (tubulin [2]) is reported as 88%. The IC50 (tubulin [4]) was 3600 ± 1000 nM.
For `COc1ccc(C(=O)c2cc3cc(O)c(OC)cc3s2)cc1O` [KH-2-2, 5-Hydroxy-2-(3′-hydroxy-4′-methoxybenzoyl)-6-methoxybenzo[b]thiophene], the IC50 (tubulin [4]) was 2400 ± 400 nM.
